Reference: patent publication US9686985B2, “Fungicide N-cycloalkyl-N-bicyclicmethylene-carboxamide derivatives” (BAYER INTELLECTUAL PROPERTY GMBH, priority 2012, dated 2017)
Values belong to the molecule of their own block, whether it stands above or below them.

Key:
Puccinia recondita = assay: Example R: in vivo preventive test on Puccinia recondita (brown rust on wheat); settings: table R; 500 ppm; wheat plants; grading 12 days after contamination
Protocol: Example R: In Vivo Preventive Test on Puccinia recondita (Brown Rust on Wheat) […] Wheat plants (“Scipion” variety), sown in starter cups on a 50/50 peat soil pozzolana substrate and grown at 22° C., are treated at the 1 leaf stage (10 cm height) by spraying with the active ingredient prepared as described above. Plants, used as controls, are treated with the mixture of acetone/tween/DMSO/water not containing the active material. After 24 hours, the plants are contaminated by spraying the leaves with an aqueous suspension of Puccinia recondita spores (100 000 spores per mL). The spores are collected from an infected plant and are suspended in water containing 2.5 mL/L of Tween 80 at 10%. The contaminated wheat plants are incubated for 24 hours at 20° C. and at 100% relative humidity, and then for 10 days at 20° C. and at 70-80% relative humidity. Grading (% of efficacy) is carried out 12 days after the contamination, in comparison with the control plants.

Venturia inaequalis = assay: Example E: in vivo preventive test on Venturia inaequalis (apples); settings: table E, 100 ppm, evaluated 10 days after inoculation
Protocol: (§1) Example E: In Vivo Preventive Test on Venturia inaequalis (Apples) [table] To produce a suitable preparation of active compound, 1 part by weight of active compound is mixed with the stated amounts of solvent and emulsifier, and the concentrate is diluted with water to the desired concentration. To test for preventive activity, young plants are sprayed with the preparation of active compound at the stated rate of application. After the spray coating has dried on, the plants are inoculated with an aqueous conidia suspension of the causal agent of apple scab (Venturia inaequalis) and then remain for 1 day in an incubation cabinet at approximately 20° C. and a relative atmospheric humidity of 100%. The plants are then placed in a greenhouse at approximately 21° C. and a relative atmospheric humidity of approximately 90%.

[1] = log P by HPLC on reversed-phase column (EEC Directive 79/831 Annex V.A8); format: physicochemical; settings: Table 1; HPLC C18, 40° C., 0.1% aqueous formic acid and acetonitrile gradient
Method in brief: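 Column at 40° C; mobile phases 0.1% aqueous formic acid and acetonitrile, linear gradient 10% to 90% acetonitrile. Calibrated with unbranched alkan-2-ones (3 to 16 carbons) of known log P; values from retention times by linear interpolation between two successive alkanones.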

[2] = test system: Blumeria graminis f.sp. hordei; assay: Example I: in vivo preventive test on Blumeria graminis (barley); settings: table I, 500 ppm, evaluated 7 days after inoculation
Protocol: Example I: In Vivo Preventive Test on Blumeria graminis (Barley) [table] To produce a suitable preparation of active compound, 1 part by weight of active compound or active compound combination is mixed with the stated amounts of solvent and emulsifier, and the concentrate is diluted with water to the desired concentration. To test for preventive activity, young plants are sprayed with the preparation of active compound or active compound combination at the stated rate of application. After the spray coating has been dried, the plants are dusted with spores of Blumeria graminis f.sp. hordei. The plants are placed in the greenhouse at a temperature of approximately 18° C. and a relative atmospheric humidity of approximately 80% to promote the development of mildew pustules.

Uromyces appendiculatus [3] = assay: Example F: in vivo preventive test on Uromyces appendiculatus (beans); settings: table F, 100 ppm, evaluated 10 days after inoculation
Protocol: as §1, with “F:” for “E:”, “Uromyces appendiculatus (Beans)” for “Venturia inaequalis (Apples)”, “spore” for “conidia”, “bean rust (Uromyces appendiculatus)” for “apple scab (Venturia inaequalis)”

Sphaerotheca fuliginea = assay: Example B: in vivo preventive test on Sphaerotheca fuliginea (powdery mildew on cucurbits); settings: table B; 500 ppm; gherkin plants; grading 12 days after contamination
Protocol: Example B: In Vivo Preventive Test on Sphaerotheca fuliginea (Powdery Mildew on Cucurbits) […] Gherkin plants (“Vert petit de Paris” variety), sown in starter cups on a 50/50 peat soil-pozzolana substrate and grown at 24° C., are treated at the Z11 cotyledon stage by spraying with the active ingredient prepared as described above. Plants, used as controls, are treated with the mixture of acetone/tween/DMSO/water not containing the active material. After 24 hours, the plants are contaminated by spraying the cotyledons with an aqueous suspension of Sphaerotheca fuliginea spores (100 000 spores per mL). The spores are collected from infected plants. The contaminated gherkin plants are incubated at about 20° C. and at 70-80% relative humidity. Grading (% of efficacy) is carried out 12 days after the contamination, in comparison with the control plants.

Uromyces appendiculatus [4] = assay: Example G: in vivo preventive test on Uromyces appendiculatus (bean rust); settings: table G1; 500 ppm; bean plants; grading 11 days after contamination
Method in brief: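 Bean plants ("Saxa") at the 2-leaf stage, grown at 24° C., sprayed preventively with active ingredient, then inoculated 24 h later with U. appendiculatus spores (150 000 spores per mL). Incubated 24 h at 20° C./100% RH, then 10 days at 20° C./70-80% RH; % efficacy graded 11 days after contamination versus solvent-treated controls.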

Septoria tritici = assay: Example K: in vivo preventive test on Septoria tritici (wheat); settings: table K, 500 ppm, evaluated 21 days after inoculation
Protocol: Example K: In Vivo Preventive Test on Septoria tritici (Wheat) [table] To produce a suitable preparation of active compound, 1 part by weight of active compound or active compound combination is mixed with the stated amounts of solvent and emulsifier, and the concentrate is diluted with water to the desired concentration. To test for preventive activity, young plants are sprayed with the preparation of active compound or active compound combination at the stated rate of application. After the spray coating has been dried, the plants are sprayed with a spore suspension of […] The plants remain for 48 hours in an incubation cabinet at approximately 20° C. and a relative atmospheric humidity of approximately 100% and afterwards for 60 hours at approximately 15° C. in a translucent incubation cabinet at a relative atmospheric humidity of approximately 100%. The plants are placed in the greenhouse at a temperature of approximately 15° C. and a relative atmospheric humidity of approximately 80%.

- logP [1]: 4.08
SMILES: CC(C1CCCc2ccccc21)N(C(=O)c1c(C(F)F)nn(C)c1F)C1CC1 (stereo not shown) [I.23]
- Efficacy (Puccinia recondita): 97%
- Efficacy (Venturia inaequalis): 100%
- Efficacy [2]: 78%
- Efficacy (Uromyces appendiculatus [3]): 96%
- Efficacy (Sphaerotheca fuliginea): 100%
- Efficacy (Uromyces appendiculatus [4]): 100%
- Efficacy (Septoria tritici): 100%

- logP [1]: 3.53
SMILES: Cn1nc(C(F)F)c(C(=O)N(CC2CC(C)(C)Oc3ccccc32)C2CC2)c1F (stereo not shown) [I.33]
- Efficacy (Puccinia recondita): 97%
- Efficacy (Venturia inaequalis): 97%
- Efficacy [2]: 100%
- Efficacy (Uromyces appendiculatus [3]): 100%
- Efficacy (Sphaerotheca fuliginea): 100%
- Efficacy (Uromyces appendiculatus [4]): 100%
- Efficacy (Septoria tritici): 100%
